Results: patent US11866430B2, “Naphthyridinone compounds useful as T cell activators” (priority 2018, dated 2024)
Like-named read-outs stand apart in the source and are kept apart here.

Assays:
[1] = system: Jurkat AP1-luciferase Reporter; experiment: DGK AP1-Reporter Assay; type: cell-based; conditions: Homo sapiens, Jurkat
In short: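 Jurkat cells carrying a lentiviral AP1-luciferase reporter received 30 nl compound per well for 20 min at 37 °C and 5% CO2. They were then stimulated for 6 h with anti-CD3 solution at 0.4 μg/mL; reference wells received 4 μg/mL and unstimulated wells medium only. Readout was Steady-Glo luciferase luminescence (RLU).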

human DGKζ = human DGKζ (Homo sapiens (Human), UniProt Q13574); experiment: DGKζ assay (detergent/lipid micelle substrate); type: biochemical; conditions: detergent/lipid micelle substrate; read-out: DGKζ IC50
human DGKζ, sequence (Q13574 other isoform, or with tags, fused parts or gaps): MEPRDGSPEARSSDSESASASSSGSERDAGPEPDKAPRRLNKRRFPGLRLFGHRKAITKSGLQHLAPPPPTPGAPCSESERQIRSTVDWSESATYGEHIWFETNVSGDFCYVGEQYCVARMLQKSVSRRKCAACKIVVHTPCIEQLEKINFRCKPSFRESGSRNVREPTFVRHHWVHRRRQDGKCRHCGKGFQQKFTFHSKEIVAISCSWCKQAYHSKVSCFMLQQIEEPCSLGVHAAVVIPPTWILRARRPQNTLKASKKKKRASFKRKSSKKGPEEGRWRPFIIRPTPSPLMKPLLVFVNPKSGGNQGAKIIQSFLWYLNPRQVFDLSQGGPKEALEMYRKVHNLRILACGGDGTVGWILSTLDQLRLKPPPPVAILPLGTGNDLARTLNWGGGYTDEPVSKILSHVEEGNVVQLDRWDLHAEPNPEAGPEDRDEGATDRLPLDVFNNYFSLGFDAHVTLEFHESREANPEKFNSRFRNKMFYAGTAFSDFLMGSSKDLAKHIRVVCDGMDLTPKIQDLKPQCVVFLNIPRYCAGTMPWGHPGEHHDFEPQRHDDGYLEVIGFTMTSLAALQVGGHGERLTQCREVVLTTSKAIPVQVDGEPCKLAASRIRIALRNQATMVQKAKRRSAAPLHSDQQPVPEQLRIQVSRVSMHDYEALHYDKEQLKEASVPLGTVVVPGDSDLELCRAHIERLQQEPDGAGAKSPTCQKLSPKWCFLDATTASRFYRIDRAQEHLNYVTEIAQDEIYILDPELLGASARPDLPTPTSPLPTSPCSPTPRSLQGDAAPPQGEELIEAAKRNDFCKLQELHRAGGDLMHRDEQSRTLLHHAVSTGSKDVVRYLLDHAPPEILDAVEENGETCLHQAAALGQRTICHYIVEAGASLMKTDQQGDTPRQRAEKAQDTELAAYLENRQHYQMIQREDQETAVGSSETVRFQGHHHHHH
In short: (§1)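 Enzymes were baculovirus/Sf9 full-length human DGKα or DGKζ with His tag. The substrate was PS/DAG in octyl glucoside micelles, in MOPS pH 7.5 buffer with NaCl, MgCl2, CaCl2 and DTT.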

[2] = system: OT-1 antigen-specific CD8+ T cells with MC38 tumor cells; experiment: Murine Cytotoxic T Lymphocyte Assay (IFN-γ); type: cell-based, mouse; conditions: Mus musculus, MC-38, read-out: msCTL INF-γ IC50, murine CTL IFN-γ (table title reads INF-γ Whole Blood Normalized Agonist EC50)
From the text: An antigen-specific cytolytic T-cell (CTL) assay was developed to evaluate functionally the ability of DGKα and DGKζ inhibitors to enhance effector T cell mediated tumor cell killing activity. CD8+ T-cells isolated from the OT-1 transgenic mouse recognize antigen presenting cells, MC38, that present the ovalbumin derived peptide […]. Recognition of the cognate antigen initiates the cytolytic activity of the OT-1 antigen-specific CD8+ T cells.
Functional CTL cells were generated as follows: OT-1 splenocytes from 8-12 week old mice were isolated and expanded in the presence of the […] peptide at 1 μg/mL and mIL2 at 10 U/mL. After three days, fresh media with mIL2 U/mL was added. On day 5 of the expansion, the CD8+ T cells were isolated and ready for use. Activated CTL cells may be stored frozen for 6 months. […] The cells were washed (3×) with fresh media to remove excess peptide. Finally, CTL cells that were pretreated with DGK inhibitors for 1 hour in a 96-well U bottom plate were combined with the antigen loaded MC38 tumor cells at a 1:10 ratio. The cells were then spun at 700 rpm for 5 min and placed in an incubator overnight at 37° C. After 24 hours, the supernatant was collected for analysis of IFN-γ cytokine levels by AlphaLisa purchased from Perkin Elmer.

Human venous whole blood = experiment: Human Whole Blood IFN-γ Assay; type: cell-based; conditions: Homo sapiens
Protocol: Human venous whole blood (22.5 μL per well), obtained from healthy donors, was pre-treated with compounds for one hour at 37° C. in a humidified 95% air/5% CO2 incubator. The blood was stimulated with 2.5 μL anti-human CD3 and anti-CD28 mAb at a final concentration of 1 μg/mL each for 24 hours at 37° C. IFN-γ in the supernatants was measured using AlphaLISA kit (Cat #AL217).

human DGKα = human DGKα (Homo sapiens (Human), UniProt P23743); experiment: biochemical
human DGKα, sequence (P23743 other isoform, or with tags, fused parts or gaps): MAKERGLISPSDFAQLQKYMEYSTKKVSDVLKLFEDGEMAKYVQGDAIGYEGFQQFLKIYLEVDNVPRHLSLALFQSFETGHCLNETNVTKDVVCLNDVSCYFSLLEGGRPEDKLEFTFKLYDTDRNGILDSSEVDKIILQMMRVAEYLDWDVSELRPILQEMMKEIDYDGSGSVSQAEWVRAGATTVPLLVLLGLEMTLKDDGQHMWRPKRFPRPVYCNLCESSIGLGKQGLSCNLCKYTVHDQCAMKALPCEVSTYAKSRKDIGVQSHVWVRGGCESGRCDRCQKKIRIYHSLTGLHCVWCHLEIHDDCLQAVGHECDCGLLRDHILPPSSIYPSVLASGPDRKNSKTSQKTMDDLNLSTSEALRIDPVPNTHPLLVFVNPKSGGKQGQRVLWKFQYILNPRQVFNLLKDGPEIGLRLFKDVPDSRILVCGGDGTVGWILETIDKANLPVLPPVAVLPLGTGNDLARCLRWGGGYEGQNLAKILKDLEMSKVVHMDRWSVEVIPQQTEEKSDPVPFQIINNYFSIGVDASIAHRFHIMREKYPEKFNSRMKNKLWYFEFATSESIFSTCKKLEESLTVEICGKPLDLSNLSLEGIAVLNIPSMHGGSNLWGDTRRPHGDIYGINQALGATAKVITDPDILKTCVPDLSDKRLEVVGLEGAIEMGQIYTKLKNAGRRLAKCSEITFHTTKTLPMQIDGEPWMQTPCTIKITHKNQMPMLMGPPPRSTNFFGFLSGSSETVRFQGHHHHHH
In short: as §1

naïve human CD8 T cells = experiment: CellTiter-Glo CD8 T Cell Proliferation Assay; type: cell-based; conditions: Homo sapiens, T-cell, CellTiter-Glo CD8 T cell proliferation, normalized; read-out: CD8 GLO normalized EC50
Protocol: Frozen naïve human CD8 T cells were thawed in RPMI+10% FBS, incubated for 2 h in 37° C., and counted. The 384-well tissue culture plate was coated overnight at 4° C. with 20 μl anti-human CD3 at 0.1 μg/mL in plain RPMI, which was removed off the plate before 20 k/40 μl CD8 T cells with 0.5 μg/mL soluble anti-human CD28 were added to each well. The compounds were echoed to the cell plate immediately after the cells were plated. After 72 h incubation at 37° C. incubator, 10 μl CellTiter-glo reagent (Promega catalog number G7570) was added to each well. The plate was vigorously shaken for 5 mins, incubated at room temperature for another 15 mins and read on Envision for CD8 T cell proliferation. In analysis, 0.1 μg/mL anti-CD3 and 0.5 μg/mL anti-CD28 stimulated CD8 T cell signal was background.

[3] = system: pre-activated CD4 T cells and Raji cells; experiment: Raji CD4 T Cell IL2 Assay; type: cell-based; conditions: Homo sapiens, Raji
[4] = read-out: API-Luciferase Reporter IC50, Table 3
[5] = detergent/lipid micelle substrate, read-out: DGKα IC50
[6] = read-out: DGKAP1 Lucif Reporter IC50, Table 4

| Structure (SMILES) | IC50 [1, 4] [nM] | IC50 (human DGKζ) [nM] | IC50 [2] [nM] | EC50 (Human venous whole blood; human whole blood, anti-CD3 plus anti-CD28 as baseline, 3 μM Example 40 co-stimulation as 100% activation, read-out: INF-γ Whole Blood Normalized Agonist EC50) [nM] | EC50 (Human venous whole blood; read-out: INF-γ Whole Blood Agonist EC50) [nM] | IC50 (human DGKα; [5]) [nM] | IC50 [1, 6] [nM] | EC50 (naïve human CD8 T cells) [nM] | IC50 [3] [nM] | IC50 (human DGKα; DGKα IC50, detergent/lipid micelle substrate) [nM] |
| --- | --- | --- | --- | --- | --- | --- | --- | --- | --- | --- |
| COCCn1c(=O)c([N+](=O)[O-])c(N2CCN(C(c3ccc(F)cc3)c3ccccc3O)CC2)c2nc(C#N)ccc21 (stereo not shown) [Example 145, 8-(4-((4-fluorophenyl)(2-hydroxyphenyl)methyl)piperazin-1-yl)-5-(2-methoxyethyl)-7-nitro-6-oxo-5,6-dihydro-1,5-naphthyridine-2-carbonitrile] | 570 | 2300 | 460 | 1870 | 1330 | 30000 |  |  |  |  |
| COc1ccc2c(c1)C(N1CCN(c3c(C#N)c(=O)n(CC#N)c4ccc(Br)nc34)CC1)CC2 (stereo not shown) [Example 156, 6-bromo-1-(cyanomethyl)-4-(4-(6-methoxy-2,3-dihydro-1H-inden-1-yl)piperazin-1-yl)-2-oxo-1,2-dihydro-1,5-naphthyridine-3-carbonitrile] | 10000 | 140000 |  |  |  | 170000 | 10000 | 140 | > 100000 |  |
| Cn1c(=O)c([N+](=O)[O-])c(N2CCN(C(c3ccc(F)cc3)C3CC3)CC2)c2nc(C#N)ccc21 (racemic) [Example 49, 8-(4-(cyclopropyl(4-fluorophenyl)methyl)piperazin-1-yl)-5-methyl-7-nitro-6-oxo-5,6-dihydro-1,5-naphthyridine-2-carbonitrile] |  | > 240000 |  |  |  |  | 1700 | 170 |  | 180 |
